Source: PubChem BioAssay (NCI)
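Following 48 hours of exposure in 96-well plates, responses at five concentrations were used to interpolate endpoints linearly. GI50 marks 50% less growth. At the TGI there is no net growth.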

Legend:
Assay in all cases: DTP human tumour cell line panel, 48 h
A549 NSCLC = tested on: A549 NSCLC
MDA-MB-435 = tested on: MDA-MB-435
RXF 393 renal = tested on: RXF 393 renal
UACC-257 melanoma = tested on: UACC-257 melanoma
786-0 renal = tested on: 786-0 renal
MCF7 breast = tested on: MCF7 breast
EKVX NSCLC = tested on: EKVX NSCLC
HCC-2998 colon = tested on: HCC-2998 colon
NCI-H23 lung = tested on: NCI-H23 lung
SNB-19 CNS = tested on: SNB-19 CNS
SW-620 colon = tested on: SW-620 colon
LOX IMVI melanoma = tested on: LOX IMVI melanoma
NCI/ADR-RES ovarian = tested on: NCI/ADR-RES ovarian
HCT-116 colon = tested on: HCT-116 colon
HT29 colon = tested on: HT29 colon
KM12 colon = tested on: KM12 colon
PC-3 prostate = tested on: PC-3 prostate
SK-MEL-28 melanoma = tested on: SK-MEL-28 melanoma
U251 CNS = tested on: U251 CNS
TK-10 renal = tested on: TK-10 renal
SK-MEL-2 melanoma = tested on: SK-MEL-2 melanoma
A498 renal = tested on: A498 renal
T-47D breast = tested on: T-47D breast
HL-60(TB) leukemia = tested on: HL-60(TB) leukemia
HS 578T breast = tested on: HS 578T breast
DU-145 prostate = tested on: DU-145 prostate
MALME-3M melanoma = tested on: MALME-3M melanoma
MDA-MB-231 breast = tested on: MDA-MB-231 breast
HOP-92 NSCLC = tested on: HOP-92 NSCLC
SN12C renal = tested on: SN12C renal
OVCAR-8 ovarian = tested on: OVCAR-8 ovarian
OVCAR-4 ovarian = tested on: OVCAR-4 ovarian
MOLT-4 leukemia = tested on: MOLT-4 leukemia
SK-OV-3 ovarian = tested on: SK-OV-3 ovarian
SNB-75 CNS = tested on: SNB-75 CNS
HCT-15 colon = tested on: HCT-15 colon
UO-31 renal = tested on: UO-31 renal
SK-MEL-5 melanoma = tested on: SK-MEL-5 melanoma
SR leukemia = tested on: SR leukemia
ACHN renal = tested on: ACHN renal
CCRF-CEM leukemia = tested on: CCRF-CEM leukemia
UACC-62 melanoma = tested on: UACC-62 melanoma
OVCAR-3 ovarian = tested on: OVCAR-3 ovarian
IGROV1 ovarian = tested on: IGROV1 ovarian
BT-549 breast = tested on: BT-549 breast
SF-295 CNS = tested on: SF-295 CNS
SF-268 CNS = tested on: SF-268 CNS
K-562 leukemia = tested on: K-562 leukemia
SF-539 CNS = tested on: SF-539 CNS
NCI-H226 lung = tested on: NCI-H226 lung
RPMI-8226 leukemia = tested on: RPMI-8226 leukemia
CAKI-1 renal = tested on: CAKI-1 renal
OVCAR-5 ovarian = tested on: OVCAR-5 ovarian
HOP-62 NSCLC = tested on: HOP-62 NSCLC
NCI-H460 lung = tested on: NCI-H460 lung
NCI-H522 lung = tested on: NCI-H522 lung
MDA-N = tested on: MDA-N
COLO 205 colon = tested on: COLO 205 colon
M14 melanoma = tested on: M14 melanoma

## N#Cc1nc(-c2ccc(F)cc2)oc1S(=O)(=O)N1CCOCC1
A549 NSCLC
  GI50: 18.2 µM
  TGI: 38.7 µM
MDA-MB-435
  GI50: 2.38 µM
  TGI: 6.9 µM
RXF 393 renal
  GI50: 1.49 µM
  TGI: 2.92 µM
UACC-257 melanoma
  GI50: 7 µM
  TGI: 20.7 µM
786-0 renal
  GI50: 3.34 µM
  TGI: 11.7 µM
MCF7 breast
  GI50: 2.65 µM
  TGI: 11.7 µM
EKVX NSCLC
  GI50: 13.8 µM
  TGI: 37 µM
HCC-2998 colon
  GI50: 11.9 µM
  TGI: 25.5 µM
NCI-H23 lung
  GI50: 10.4 µM
  TGI: 25.4 µM
SNB-19 CNS
  GI50: 13.7 µM
  TGI: 28 µM
SW-620 colon
  GI50: 1.57 µM
  TGI: 3.24 µM
LOX IMVI melanoma
  GI50: 1.02 µM
  TGI: 2.3 µM
NCI/ADR-RES ovarian
  GI50: 13.4 µM
  TGI: 47.2 µM
HCT-116 colon
  GI50: 1.28 µM
  TGI: 3.07 µM
HT29 colon
  GI50: 3.11 µM
  TGI: > 100 µM
KM12 colon
  GI50: 12 µM
  TGI: 26.3 µM
PC-3 prostate
  GI50: 11.6 µM
  TGI: 26.9 µM
SK-MEL-28 melanoma
  GI50: 2.41 µM
  TGI: 6.25 µM
U251 CNS
  GI50: 14.5 µM
  TGI: 31.5 µM
TK-10 renal
  GI50: 1.75 µM
  TGI: 3.26 µM
SK-MEL-2 melanoma
  GI50: 13.4 µM
  TGI: 27.5 µM
A498 renal
  GI50: 15.6 µM
  TGI: 32 µM
T-47D breast
  GI50: 2.11 µM
  TGI: 5.23 µM
HL-60(TB) leukemia
  GI50: 1.91 µM
  TGI: 4.76 µM
HS 578T breast
  GI50: 15.1 µM
  TGI: 45.4 µM
DU-145 prostate
  GI50: 2.23 µM
  TGI: 6.07 µM
MALME-3M melanoma
  GI50: 1.7 µM
  TGI: 4.23 µM
MDA-MB-231 breast
  GI50: 2.86 µM
  TGI: 8.64 µM
HOP-92 NSCLC
  GI50: 2.66 µM
  TGI: 9.48 µM
SN12C renal
  GI50: 1.77 µM
  TGI: 4.1 µM
OVCAR-8 ovarian
  GI50: 4.71 µM
  TGI: 30.2 µM
OVCAR-4 ovarian
  GI50: 3.08 µM
  TGI: 10.2 µM
MOLT-4 leukemia
  GI50: 2.02 µM
  TGI: 5.49 µM
SK-OV-3 ovarian
  GI50: 23.4 µM
  TGI: 86.6 µM
SNB-75 CNS
  GI50: 10.2 µM
  TGI: 22 µM
HCT-15 colon
  GI50: 1.98 µM
  TGI: 5.37 µM
UO-31 renal
  GI50: 1.62 µM
  TGI: 2.97 µM
SK-MEL-5 melanoma
  GI50: 6.33 µM
  TGI: 18.8 µM
SR leukemia
  GI50: 0.439 µM
  TGI: 2.92 µM
ACHN renal
  GI50: 1.74 µM
  TGI: 3.12 µM
CCRF-CEM leukemia
  GI50: 1.62 µM
  TGI: 7.35 µM
UACC-62 melanoma
  GI50: 4.79 µM
  TGI: 17.6 µM
OVCAR-3 ovarian
  GI50: 1.75 µM
  TGI: 3.18 µM
IGROV1 ovarian
  GI50: 3.68 µM
  TGI: 14.6 µM
BT-549 breast
  GI50: 10.8 µM
  TGI: 23 µM
SF-295 CNS
  GI50: 16.1 µM
  TGI: 30.6 µM
SF-268 CNS
  GI50: 11 µM
  TGI: 25.4 µM
K-562 leukemia
  GI50: 1.7 µM
  TGI: 10.9 µM
SF-539 CNS
  GI50: 1.88 µM
  TGI: 4.02 µM
NCI-H226 lung
  GI50: 4.33 µM
  TGI: 19.9 µM
RPMI-8226 leukemia
  GI50: 1.55 µM
  TGI: 4.49 µM
CAKI-1 renal
  GI50: 2.12 µM
  TGI: 5.62 µM
OVCAR-5 ovarian
  GI50: 2.8 µM
  TGI: 9.38 µM
HOP-62 NSCLC
  GI50: 10.8 µM
  TGI: 37.9 µM
NCI-H460 lung
  GI50: 12.6 µM
  TGI: 27.3 µM
NCI-H522 lung
  GI50: 0.675 µM
  TGI: 3.13 µM

## CCOC(=O)C1CC(O)C(=O)N1C (centres undefined)
A549 NSCLC
  TGI: > 100 µM
MDA-MB-435
  TGI: > 100 µM
RXF 393 renal
  TGI: > 100 µM
UACC-257 melanoma
  TGI: > 100 µM
786-0 renal
  TGI: > 100 µM
MCF7 breast
  TGI: > 100 µM
EKVX NSCLC
  TGI: > 100 µM
HCC-2998 colon
  TGI: > 100 µM
NCI-H23 lung
  TGI: > 100 µM
SNB-19 CNS
  TGI: > 100 µM
LOX IMVI melanoma
  TGI: > 100 µM
MDA-N
  TGI: > 100 µM
HCT-116 colon
  TGI: > 100 µM
HT29 colon
  TGI: > 100 µM
PC-3 prostate
  TGI: > 100 µM
SK-MEL-28 melanoma
  TGI: > 100 µM
U251 CNS
  TGI: > 100 µM
TK-10 renal
  TGI: > 100 µM
SK-MEL-2 melanoma
  TGI: > 100 µM
T-47D breast
  TGI: > 100 µM
HL-60(TB) leukemia
  TGI: > 100 µM
DU-145 prostate
  TGI: > 100 µM
MDA-MB-231 breast
  TGI: > 100 µM
HOP-92 NSCLC
  TGI: > 100 µM
SN12C renal
  TGI: > 100 µM
OVCAR-4 ovarian
  TGI: > 100 µM
MOLT-4 leukemia
  TGI: > 100 µM
SK-OV-3 ovarian
  TGI: > 100 µM
COLO 205 colon
  TGI: > 100 µM
HCT-15 colon
  TGI: > 100 µM
UO-31 renal
  TGI: > 100 µM
M14 melanoma
  TGI: > 100 µM
SK-MEL-5 melanoma
  TGI: > 100 µM
SR leukemia
  TGI: > 100 µM
ACHN renal
  TGI: > 100 µM
CCRF-CEM leukemia
  TGI: > 100 µM
UACC-62 melanoma
  TGI: > 100 µM
OVCAR-3 ovarian
  TGI: > 100 µM
IGROV1 ovarian
  TGI: > 100 µM
BT-549 breast
  TGI: > 100 µM
SF-295 CNS
  TGI: > 100 µM
SF-539 CNS
  TGI: > 100 µM
NCI-H226 lung
  TGI: > 100 µM
RPMI-8226 leukemia
  TGI: > 100 µM
CAKI-1 renal
  TGI: > 100 µM
OVCAR-5 ovarian
  TGI: > 100 µM
HOP-62 NSCLC
  TGI: > 100 µM
